SMILES strings stand for the structures. Square brackets hold non-standard residues; d marks the D form. Peptide text beside a SMILES is read from it. * marks the point of attachment. Dip = N[C@H](C(=O)O)C(c1ccccc1)c1ccccc1; Tos = Cc1ccc(S(=O)(=O)*)cc1; OBn = c1ccc(CO*)cc1; Sar = CNCC(=O)O

The term melting point denotes the temperature, or range, at which the solid turns liquid.

`COC(=O)c1ccccc1S(=O)(=O)NCC(=O)N[C@@H](Cc1ccccc1)C(=O)O` [Example 6, N-(2-Methoxycarbonylbenzenesulfonyl)-glycyl-L-phenylalanine] had a melting point of 140 to 143 °C. The result for `Cc1ccc(S(=O)(=O)NC(C(=O)N[C@@H](Cc2ccccc2)C(=O)OCc2ccccc2)c2ccccc2)cc1` (mixture of isomers) [Example 29, N-(Toluene-4-sulfonyl)-D,L-phenylglycyl-L-phenylalanine Benzyl Ester] reads 148 to 150 °C; that for `Cc1ccc(S(=O)(=O)N(C)CC(=O)N[C@@H](Cc2ccccc2)C(=O)O)cc1` [Example 4, N-(Toluene-4-sulfonyl)sarcosyl-L-phenylalanine] (Tos-[Sar]-Phe-OH), 128 to 130 °C; that for `Cc1ccc(S(=O)(=O)N[C@@H](C)C(=O)N[C@@H](Cc2ccccc2)C(=O)O)cc1` [Example 5, N-(Toluene-4-sulfonyl)-L-alanyl-L-phenylalanine], 105 to 108 °C. With `Cc1ccc(S(=O)(=O)NC(C(=O)N[C@@H](Cc2ccccc2)C(=O)O)c2ccccc2)cc1` (mixture of isomers) [Example 9, N-(Toluene-4-sulfonyl)-D,L-phenylglycyl-L-phenylalanine], the melting point was 150 to 152 °C.

On to `CCOC(=O)[C@H](Cc1ccccc1)NC(=O)C(NS(=O)(=O)c1ccc(C)cc1)c1ccccc1` (mixture of isomers) [Example 22, N-(Toluene-4-sulfonyl)-D,L-phenylglycyl-L-phenylalanine Ethyl Ester], for which the melting point lay within 145 to 147 °C. Then `Cc1ccc(S(=O)(=O)N(C)CC(=O)N[C@@H](Cc2ccccc2)C(=O)OCc2ccccc2)cc1` [Example 21, N-(Toluene-4-sulfonyl)sarcosyl-L-phenylalanine Benzyl Ester] (Tos-[Sar]-Phe-OBn), with 80 to 82 °C; and `Cc1ccc(S(=O)(=O)N[C@@H](C)C(=O)N[C@@H](Cc2ccccc2)C(=O)OCc2ccccc2)cc1` [Example 20, N-(Toluene-4-sulfonyl)-L-alanyl-L-phenylalanine Benzyl Ester], with 109 to 110 °C; and `Cc1ccc(S(=O)(=O)N(C)C(C(=O)N[C@@H](Cc2ccccc2)C(=O)OCc2ccccc2)c2ccccc2)cc1` (mixture of isomers) [Example 30, N-(Toluene-4-sulfonyl)-N-methyl-D,L-phenylglycyl-L-phenylalanine Benzyl Ester], with 46 to 49 °C.

As to `Cc1ccc(S(=O)(=O)NCC(=O)N[C@@H](Cc2ccccc2)C(=O)O)cc1` [Example 3, N-(Toluene-4-sulfonyl)glycyl-L-phenylalanine] (Tos-Gly-Phe-OH), the melting point is 157 to 161 °C. The result for `Cc1ccc(S(=O)(=O)N[C@H](C(=O)N[C@@H](Cc2ccccc2)C(=O)OCc2ccccc2)C(c2ccccc2)c2ccccc2)cc1` [Example 25, N-(Toluene-4-sulfonyl)-L-diphenylalanyl-L-phenylalanine Benzyl Ester] (Tos-[Dip]-Phe-OBn) reads 79 to 84 °C.
